Format in all cases: biochemical
One test addresses T1, c-Met kinase (Homo sapiens, UniProt P08581).
T1 construct: recombinant N-terminal 6×His-tagged c-Met kinase domain construct expressed from baculovirus; 6xHis (N); made in house
Nature of the test: c-Met kinase assay (33P incorporation into Poly(Glu-Tyr)). The conditions noted are these: 500 nM test compound. Put shortly: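 Recombinant N-terminal 6×His-tagged c-Met kinase domain (baculovirus-expressed, 5 ng) acted on Poly(Glu-Tyr) 4:1 with 100 μM ATP plus [33P]-γ-ATP in MOPS pH 7.0 buffer, 30 min at 30° C. Compound was at 500 nM. Filter-retained radioactivity was compared with the DMSO control to give percent inhibition.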

Another test deals with T2, PDGFR-β kinase (Homo sapiens, UniProt P09619).
T2 construct: recombinant N-terminal 6×His-tagged PDGFR-β kinase domain construct expressed by baculovirus; 6xHis (N); made in house
T2 sequence (P09619 600-962 limits assumed): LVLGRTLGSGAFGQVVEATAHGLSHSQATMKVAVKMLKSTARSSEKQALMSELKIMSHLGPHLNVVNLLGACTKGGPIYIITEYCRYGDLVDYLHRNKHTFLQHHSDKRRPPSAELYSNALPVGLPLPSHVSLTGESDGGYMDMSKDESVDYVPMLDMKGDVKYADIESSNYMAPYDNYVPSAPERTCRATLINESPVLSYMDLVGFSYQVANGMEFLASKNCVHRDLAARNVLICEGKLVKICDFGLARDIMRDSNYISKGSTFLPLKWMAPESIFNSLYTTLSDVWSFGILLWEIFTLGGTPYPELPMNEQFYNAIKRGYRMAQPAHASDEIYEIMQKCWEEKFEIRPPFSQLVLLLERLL
Briefly: PDGFR-β kinase assay (33P incorporation into Poly(Glu-Tyr)). The conditions noted are these: 500 nM test compound. Put shortly:
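His-tagged PDGFR-β kinase domain (55 ng) with Poly(Glu-Tyr) 4:1, 30 μM ATP plus [33P]-γ-ATP, pH 7.0 MnCl2 buffer, and 500 nM compound for 30 min at 30° C. Filter-bound radioactivity counted; inhibition computed relative to DMSO control.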

The target in another test is T3, Aurora B kinase (Homo sapiens, UniProt Q96GD4).
T3 construct: purchased Cell signaling
T3 sequence (Q96GD4 whole entry): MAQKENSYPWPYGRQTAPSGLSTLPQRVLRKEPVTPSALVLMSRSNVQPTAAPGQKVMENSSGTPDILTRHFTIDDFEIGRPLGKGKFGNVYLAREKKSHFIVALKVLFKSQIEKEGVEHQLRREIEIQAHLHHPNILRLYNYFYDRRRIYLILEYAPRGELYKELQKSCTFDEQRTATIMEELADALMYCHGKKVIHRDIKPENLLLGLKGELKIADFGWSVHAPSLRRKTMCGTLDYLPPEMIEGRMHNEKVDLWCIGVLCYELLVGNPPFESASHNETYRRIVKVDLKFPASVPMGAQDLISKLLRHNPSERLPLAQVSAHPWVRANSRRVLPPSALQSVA
Nature of the test: Aurora B kinase assay ([γ-33P]ATP, CHOCKtide substrate). The following applies: for inhibition at 1 µM: 1.0 μM test compound. Put shortly: (§1)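 Recombinant Aurora A (1 ng) or Aurora B (2.5 ng) incubated with test compound, CHOCKtide (1 μg) and [γ-33P]ATP/ATP at 10 μM (Aurora A) or 40 μM (Aurora B), 30 min at 33 °C. Stopped with phosphoric acid; filter-bound 33P counted; IC50 = half-maximal inhibition.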

Another test deals with T4, Aurora A kinase (Homo sapiens, UniProt O14965).
T4 construct: purchased Upstate
T4 sequence (O14965 1-403): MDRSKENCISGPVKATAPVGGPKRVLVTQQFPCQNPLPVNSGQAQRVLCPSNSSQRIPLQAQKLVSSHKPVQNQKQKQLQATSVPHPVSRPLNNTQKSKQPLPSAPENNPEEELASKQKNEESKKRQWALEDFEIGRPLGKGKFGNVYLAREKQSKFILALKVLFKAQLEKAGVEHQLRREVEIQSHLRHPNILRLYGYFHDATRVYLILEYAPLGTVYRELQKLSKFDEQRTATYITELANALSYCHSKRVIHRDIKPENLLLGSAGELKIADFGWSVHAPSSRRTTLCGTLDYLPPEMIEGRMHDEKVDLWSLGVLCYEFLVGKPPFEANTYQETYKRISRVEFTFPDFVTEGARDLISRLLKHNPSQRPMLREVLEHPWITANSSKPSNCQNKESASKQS
Briefly: Aurora A kinase assay ([γ-33P]ATP, CHOCKtide substrate). The conditions noted are these: for inhibition at 1 µM: 1.0 μM test compound. A digest of the protocol: as §1

Structures are written as SMILES.

T1 sequence (P08581 1078-1345 limits assumed): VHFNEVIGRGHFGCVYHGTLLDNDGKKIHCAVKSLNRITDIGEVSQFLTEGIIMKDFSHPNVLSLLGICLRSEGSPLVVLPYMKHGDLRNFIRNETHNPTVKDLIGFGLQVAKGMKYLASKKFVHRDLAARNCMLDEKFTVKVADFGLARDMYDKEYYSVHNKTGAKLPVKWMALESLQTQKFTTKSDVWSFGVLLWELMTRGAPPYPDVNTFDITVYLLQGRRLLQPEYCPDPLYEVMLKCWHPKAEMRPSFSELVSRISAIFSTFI

For `NS(=O)(=O)c1ccc2c(c1)/C(=C/c1[nH]c3c(c1CCC(=O)O)C(=O)CCC3)C(=O)N2` [DCB-70095, (Z)-5-sulfamoyl-3-((3-carboxyethyl-4-oxo-4,5,6,7-tetrahydro-1H-indol-2-yl)methylene)indolin-2-one], the inhibition at 0.5 µM on c-Met kinase came out at 16%; on PDGFR-β kinase it was 36.2%. Also, the inhibition at 1 µM stood at 34.1% on Aurora B kinase and 94.3% against Aurora A kinase. For the same compound, on Aurora A kinase, inhibition was half-maximal at 61.2 nM (IC50).
On the same counts, the results for `O=C(O)CCc1c(/C=C2\C(=O)Nc3ccc(Br)cc32)[nH]c2c1C(=O)CCC2` [DCB-70057, (Z)-5-bromo-3-((3-carboxyethyl-4-oxo-4,5,6,7-tetrahydro-1H-indol-2-yl)methylene)indolin-2-one] are 19.3%, 89.3%, 6.8%, 89.5% and 211 nM.
On to `CCOC(=O)CCc1c(/C=C2\C(=O)Nc3ccc(-c4cc5ccccc5s4)cc32)[nH]c2c1C(=O)CCC2` [DCB-70069, (Z)-5-(benzo[b]thiophen-2-yl)-3-((3-(3-ethoxy-3-oxopropyl)-4-oxo-4,5,6,7-tetrahydro-1H-indol-2-yl)methylene)indolin-2-one], for which the inhibition at 0.5 µM against c-Met kinase was -38%; at PDGFR-β kinase, 6.8%. Also, the inhibition at 1 µM was -2.6% against Aurora B kinase and 16.5% against Aurora A kinase.
On the same counts, the results for `CCOC(=O)CCc1c(/C=C2\C(=O)Nc3ccc(NC(=O)Nc4cccc5ccccc45)cc32)[nH]c2c1C(=O)CCC2` [DCB-70129, (Z)-ethyl 3-(2-((5-(3-naphthalen-1-ylureido)-2-oxoindolin-3-ylidene)methyl)-4-oxo-4,5,6,7-tetrahydro-1H-indol-3-yl)propanoate] are 5%, 1.4%, 5.8% and 15.6%.
`O=C(O)CCc1c(/C=C2\C(=O)Nc3cc(-c4ccc(O)cc4)ccc32)[nH]c2c1C(=O)CCC2` [DCB-70075, (Z)-6-(4-hydroxyphenyl)-3-((3-carboxyethyl-4-oxo-4,5,6,7-tetrahydro-1H-indol-2-yl)methylene)indolin-2-one]: the inhibition at 0.5 µM amounted to 21.8% on c-Met kinase and 94.1% against PDGFR-β kinase. In addition, the IC50 against Aurora B kinase was 456 nM; against Aurora A kinase, 86.3 nM. Moreover, the inhibition at 1 µM against Aurora B kinase came to 55.8%; at Aurora A kinase, 92.4%.

The term inhibition denotes the drop in the measured response relative to a control, in per cent. Usually IC50 stands for the midpoint of a concentration-inhibition curve. A low value points to greater potency in that assay.
